According to ChEMBL document CHEMBL1148800, “Novel 2,7-dialkyl-substituted 5(S)-amino-4(S)-hydroxy-8-phenyl-octanecarboxamide transition state peptidomimetics are potent and orally active inhibitors of human renin” (J Med Chem, 2007):

Tests used:
Callithrix jacchus [1] = organism: Callithrix jacchus; assay: animal or person; settings: Plasma, po, 6 h, read-out: Inhibition
Description: Inhibition of plasma renin activity in sodium depleted marmoset at 10 mg/kg, po after 6 hrs

Callithrix jacchus [2] = organism: Callithrix jacchus; assay: animal or person; settings: Plasma, po, 6 h, read-out: Inhibition; remark: listed apart in the source
Description: Inhibition of plasma renin activity in sodium depleted marmoset at 3 mg/kg, po after 6 hrs

Row | SMILES | inhibition in vivo at 10 mg/kg (Callithrix jacchus [1]) | inhibition in vivo at 3 mg/kg (Callithrix jacchus [2])
1 | COCCCOc1cc(C[C@@H](C[C@H](N)[C@@H](O)C[C@@H](C)C(=O)NCC(C)(C)N2CCOCC2)C(C)C)ccc1OC | 88% | –
2 | COCCCOc1cc(C[C@@H](C[C@H](N)[C@@H](O)C[C@@H](C)C(=O)NCCN2CCSCC2)C(C)C)ccc1OC | – | 28%
3 | COCCCOc1cc(C[C@@H](C[C@H](N)[C@@H](O)C[C@@H](C)C(=O)NCCCC(N)=O)C(C)C)ccc1OC | – | 95%
